Laboratory results: BindingDB's records for doi:10.7270/Q2CR5RSX (Vanderbilt Screening Center For Gpcrs, Ion Channels and …, 2009)

Biological target: T1, Muscarinic acetylcholine receptor M5 (Homo sapiens, UniProt P08912)
T1 sequence (P08912 whole entry): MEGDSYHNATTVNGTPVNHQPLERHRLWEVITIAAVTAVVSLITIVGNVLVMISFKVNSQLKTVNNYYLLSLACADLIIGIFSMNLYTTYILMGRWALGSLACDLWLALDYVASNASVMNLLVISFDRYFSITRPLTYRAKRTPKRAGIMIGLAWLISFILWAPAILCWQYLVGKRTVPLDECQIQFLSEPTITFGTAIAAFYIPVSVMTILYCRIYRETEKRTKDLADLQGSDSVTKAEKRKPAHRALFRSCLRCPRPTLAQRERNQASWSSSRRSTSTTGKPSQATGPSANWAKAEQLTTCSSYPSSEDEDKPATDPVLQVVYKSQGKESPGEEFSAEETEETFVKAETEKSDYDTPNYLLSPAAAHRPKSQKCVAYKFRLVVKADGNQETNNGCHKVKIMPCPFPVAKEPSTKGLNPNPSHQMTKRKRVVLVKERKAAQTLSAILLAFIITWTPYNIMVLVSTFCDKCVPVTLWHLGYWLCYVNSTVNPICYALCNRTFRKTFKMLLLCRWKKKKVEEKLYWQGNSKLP
Assay: compound effect on ACh competition at M5, biochemical, [3H]N-methylscopolamine, acetylcholine (AID 2194)

Structure (SMILES): COc1ccc(CN2C(=O)C(=O)c3cc(OC(F)(F)F)ccc32)cc1 [VU0238429]
- EC50: 210 nM
